Results as given in ChEMBL document CHEMBL1151438, “In vitro resistance study of rupintrivir, a novel inhibitor of human rhinovirus 3C protease” (Antimicrob Agents Chemother, 2007).

Tests used:
rhinovirus B14 [1] = test: Ratio of EC50 for HRV14 infected in human H1-HeLa cells after 11 passages for 65 days to EC50 for wild type HRV14 infected in human H1-HeLa cells; assay type: functional
rhinovirus A2 = test: Ratio of EC50 for HRV2 with 3C protease E3E/G, A103A/V, N165T mutation infected in human H1-HeLa cells after 9 passages for 62 days to EC50 for wild type HRV2 infected in human H1-HeLa cells; assay type: functional
rhinovirus A39 [2] = test: Antiviral activity against HRV39 with 3C protease […], L136/F mutation infected in human H1-HeLa cells assessed as virus-induced cytopathic effect after 5 passages for 29 days by XTT assay; assay type: functional, organism-based; settings: Rhinovirus A, 696 h
rhinovirus A39 [3] = test: Ratio of EC50 for HRV39 with 3C protease […], L136/F mutation infected in human H1-HeLa cells after 5 passages for 29 days to EC50 for wild type HRV39 infected in human H1-HeLa cells; assay type: functional
rhinovirus A39 [4] = test: Ratio of EC50 for HRV39 with 3C protease S105S/T, N130K, L136F mutation infected in human H1-HeLa cells after 9 passages for 50 days to EC50 for wild type HRV39 infected in human H1-HeLa cells; assay type: functional
Human rhinovirus sp. [5] = test: Antiviral activity against wild type HRV Hanks infected in human H1-HeLa cells assessed as virus-induced cytopathic effect after 4 days by plaque reduction assay; assay type: functional, organism-based; settings: 96 h
Human rhinovirus sp. [6] = test: Antiviral activity against HRV Hanks with 3C protease T130A mutation infected in human H1-HeLa cells assessed as virus-induced cytopathic effect after 6 passages for 40 days by plaque reduction assay; assay type: functional, organism-based
Human rhinovirus sp. [7] = test: Ratio of EC50 for HRV Hanks with 3C protease T130A mutation infected in human H1-HeLa cells after 6 passages for 40 days to EC50 for wild type HRV Hanks infected in human H1-HeLa cells; assay type: functional
rhinovirus B14 [8] = test: Ratio of EC50 for HRV14 with 3C protease with T129A, T131A, T143P, Y139Y/H mutation infected in human H1-HeLa cells after 10 passages for 55 days to EC50 for wild type HRV14 infected in human H1-HeLa cells; assay type: functional
rhinovirus B14 [9] = test: Ratio of EC50 for HRV14 with 3C protease with A121A/V, T129A, T131A, N132S, Y139Y/H, T143P mutation infected in human H1-HeLa cells after 12 passages for 72 days to EC50 for wild type HRV14 infected in human H1-HeLa cells; assay type: functional
rhinovirus B14 [10] = test: Ratio of EC50 for HRV14 with 3C protease T129A mutation infected in human H1-HeLa cells to EC50 for wild type HRV14 infected in human H1-HeLa cells; assay type: functional
rhinovirus B14 [11] = test: Ratio of EC50 for HRV14 infected in human H1-HeLa cells after 2 passages for 11 days to EC50 for wild type HRV14 infected in human H1-HeLa cells; assay type: functional

SMILES: CCOC(=O)/C=C/[C@H](C[C@@H]1CCNC1=O)NC(=O)[C@@H](CC(=O)[C@@H](NC(=O)c1cc(C)on1)C(C)C)Cc1ccc(F)cc1 [RUPINTRIVIR]
- Ratio EC50 (rhinovirus B14 [1]): 90
- Ratio EC50 (rhinovirus A2): 5
- EC50 (rhinovirus A39 [2]): 83 nM
- Ratio EC50 (rhinovirus A39 [3]): 3
- Ratio EC50 (rhinovirus A39 [4]): 4
- EC50 (Human rhinovirus sp. [5]): 19 nM
- EC50 (Human rhinovirus sp. [6]): 51 nM
- Ratio EC50 (Human rhinovirus sp. [7]): 3
- Ratio EC50 (rhinovirus B14 [8]): 15
- Ratio EC50 (rhinovirus B14 [9]): 20
- Ratio EC50 (rhinovirus B14 [10]): 1
- Ratio EC50 (rhinovirus B14 [11]): 3.5
